Several values for one entry are separate records, joined by “and”; a condition that tells them apart may be missing. Equal entries are not always repeated. Results filed as inconclusive are left out. How the source made its calls: active means survival T/C of 150% or more; inactive means T/C below 125% in these data.
System: BDF1 mice, B16 melanoma s.c., survival/tumor T/C
Assay: NCI In Vivo Anticancer Drug Screen. Data for tumor model B16 Melanoma (subcutaneous) in B6D2F1 (BDF1) mice
Settings: endpoint: median survival time, higher = longer survival
Procedure: The antitumor activity of compounds was measured in mice bearing transplantable tumors. Survival or tumor size were measured and the results are expressed as the measurement made in the treated group (T) divided by the measurement made in the vehicle treated control group (C). The tumor model used in this assay is B16 Melanoma (subcutaneous) in B6D2F1 (BDF1) mice

[1] = dose: 6.0 mg/kg/injection, schedule: Q01DX009 (ip), vehicle: Klucel (hydroxypropylcellulose) (HPC)
[2] = dose: 32.0 mg/kg/injection, schedule: Q01DX009 (ip), vehicle: saline
[3] = dose: 64.0 mg/kg/injection, schedule: Q01DX009 (ip), vehicle: saline
[4] = dose: 8.0 mg/kg/injection, schedule: Q01DX009 (ip), vehicle: saline

Measured: T/C

CC(=O)O[C@H]1C(=O)[C@@]2(C)[C@H]([C@H](OC(=O)c3ccccc3)[C@]3(O)C[C@H](OC(=O)[C@H](O)[C@@H](NC(=O)c4ccccc4)c4ccccc4)C(C)=C1C3(C)C)[C@]1(OC(C)=O)CO[C@@H]1C[C@@H]2O
inactive: dose: 1.32 mg/kg/injection, schedule: Q01DX009 (ip), vehicle: Klucel (hydroxypropylcellulose) (HPC) 91 % of control | dose: 1.32 mg/kg/injection, schedule: Q01DX009 (ip), vehicle: other 100 % of control | dose: 1.98 mg/kg/injection, schedule: Q01DX009 (ip), vehicle: Klucel (hydroxypropylcellulose) (HPC) 95 % of control | dose: 1.98 mg/kg/injection, schedule: Q01DX009 (ip), vehicle: other 88 % of control | dose: 2.96 mg/kg/injection, schedule: Q01DX009 (ip), vehicle: Klucel (hydroxypropylcellulose) (HPC) 116 % of control | dose: 2.96 mg/kg/injection, schedule: Q01DX009 (ip), vehicle: other 88 % of control | dose: 4.0 mg/kg/injection, schedule: Q01DX009 (ip), vehicle: Klucel (hydroxypropylcellulose) (HPC) 93 % of control | dose: 4.44 mg/kg/injection, schedule: Q01DX009 (ip), vehicle: other 123 % of control | [1] 97 % of control | dose: 6.67 mg/kg/injection, schedule: Q01DX009 (ip), vehicle: Klucel (hydroxypropylcellulose) (HPC) 117 % of control | dose: 9.0 mg/kg/injection, schedule: Q01DX009 (ip), vehicle: Klucel (hydroxypropylcellulose) (HPC) 93 % of control | dose: 11.0 mg/kg/injection, schedule: Q04DX003 (ip), vehicle: Klucel (hydroxypropylcellulose) (HPC) 102 % of control | dose: 13.0 mg/kg/injection, schedule: Q01DX001 (ip), vehicle: Klucel (hydroxypropylcellulose) (HPC) 97 % of control | dose: 16.0 mg/kg/injection, schedule: Q04DX003 (ip), vehicle: Klucel (hydroxypropylcellulose) (HPC) 91 % of control | dose: 20.0 mg/kg/injection, schedule: Q01DX001 (ip), vehicle: Klucel (hydroxypropylcellulose) (HPC) 122 % of control | dose: 24.0 mg/kg/injection, schedule: Q04DX003 (ip), vehicle: Klucel (hydroxypropylcellulose) (HPC) 93 % of control | dose: 30.0 mg/kg/injection, schedule: Q01DX001 (ip), vehicle: Klucel (hydroxypropylcellulose) (HPC) 106 % of control

CC(=O)Oc1ccccc1C(=O)O
inactive: [2] 95 % of control | [3] 88 % of control | dose: 256.0 mg/kg/injection, schedule: Q01DX009 (ip), vehicle: saline 116 % of control

CC1(C)N=C(N)N=C(N)N1c1ccc(CCCCc2ccc(Cl)c(S(=O)(=O)F)c2)c(Cl)c1
inactive: [4] 119 % of control | dose: 12.0 mg/kg/injection, schedule: Q01DX009 (ip), vehicle: saline 110 % of control | dose: 18.0 mg/kg/injection, schedule: Q01DX009 (ip), vehicle: saline 107 % of control | dose: 27.0 mg/kg/injection, schedule: Q01DX009 (ip), vehicle: saline 94 % of control

Cc1cc2oc(=O)c3c(c2c(O)c1CN1CCN(C)CC1)CCCC3
inactive: dose: 64.0 mg/kg/injection, schedule: Q01DX009 (ip), vehicle: Klucel (hydroxypropylcellulose) (HPC) 110 % of control | dose: 128.0 mg/kg/injection, schedule: Q01DX009 (ip), vehicle: Klucel (hydroxypropylcellulose) (HPC) 113 % of control

CC1OC(=O)C(C(C)C)NC(=O)C(C(C)C)OC(=O)C(C(C)C)NC(=O)C(C)OC(=O)C(C(C)C)NC(=O)C(C(C)C)OC(=O)C(C(C)C)NC(=O)C(C)OC(=O)C(C(C)C)NC(=O)C(C(C)C)OC(=O)C(C(C)C)NC1=O (configuration not stated)
inactive: dose: 3.4 mg/kg/injection, schedule: Q01DX009 (ip), vehicle: saline with Tween-80 86 % of control | dose: 5.0 mg/kg/injection, schedule: Q01DX009 (ip), vehicle: saline with Tween-80 86 % of control | dose: 7.5 mg/kg/injection, schedule: Q01DX009 (ip), vehicle: saline with Tween-80 91 % of control | dose: 15.0 mg/kg/injection, schedule: Q04DX003 (ip), vehicle: saline with Tween-80 86 % of control | dose: 20.0 mg/kg/injection, schedule: Q04DX003 (ip), vehicle: saline with Tween-80 90 % of control | dose: 30.0 mg/kg/injection, schedule: Q01DX001 (ip), vehicle: saline with Tween-80 86 % of control | dose: 30.0 mg/kg/injection, schedule: Q04DX003 (ip), vehicle: saline with Tween-80 91 % of control | dose: 45.0 mg/kg/injection, schedule: Q01DX001 (ip), vehicle: saline with Tween-80 97 % of control

Nc1ncnc2c1ccn2C1OC(CO)C(O)C1O (configuration not stated)
inactive: dose: 0.25 mg/kg/injection, schedule: Q01DX009 (ip), vehicle: saline 111 % of control | dose: 0.5 mg/kg/injection, schedule: Q01DX009 (ip), vehicle: Klucel (hydroxypropylcellulose) (HPC) 106 % of control | dose: 0.5 mg/kg/injection, schedule: Q01DX009 (ip), vehicle: saline 106 % of control | dose: 1.0 mg/kg/injection, schedule: Q01DX009 (ip), vehicle: Klucel (hydroxypropylcellulose) (HPC) 110 % of control | dose: 1.0 mg/kg/injection, schedule: Q01DX009 (ip), vehicle: saline 99 % of control

CC/C(=C(/CC)c1ccc(O)cc1)c1ccc(O)cc1
inactive: [1] 93 % of control | dose: 12.0 mg/kg/injection, schedule: Q01DX009 (ip), vehicle: Klucel (hydroxypropylcellulose) (HPC) 100 % of control | dose: 24.0 mg/kg/injection, schedule: Q01DX009 (ip), vehicle: Klucel (hydroxypropylcellulose) (HPC) 106 % of control | dose: 48.0 mg/kg/injection, schedule: Q01DX009 (ip), vehicle: Klucel (hydroxypropylcellulose) (HPC) 97 % of control

Nc1c(Cl)c(Cl)nc(C(=O)O)c1Cl
inactive: dose: 3.12 mg/kg/injection, schedule: Q02DX009 (ip), vehicle: Klucel (hydroxypropylcellulose) (HPC) 108 % of control | dose: 6.25 mg/kg/injection, schedule: Q01DX015 (sc), vehicle: other 105 % of control | dose: 6.25 mg/kg/injection, schedule: Q02DX009 (ip), vehicle: Klucel (hydroxypropylcellulose) (HPC) 97 % of control | dose: 12.5 mg/kg/injection, schedule: Q01DX015 (sc), vehicle: other 105 % of control | dose: 25.0 mg/kg/injection, schedule: Q01DX015 (sc), vehicle: other 101 % of control | dose: 50.0 mg/kg/injection, schedule: Q02DX009 (ip), vehicle: Klucel (hydroxypropylcellulose) (HPC) 94 % of control | dose: 100.0 mg/kg/injection, schedule: Q02DX009 (ip), vehicle: Klucel (hydroxypropylcellulose) (HPC) 90 % of control | dose: 200.0 mg/kg/injection, schedule: Q02DX009 (ip), vehicle: Klucel (hydroxypropylcellulose) (HPC) 87 % of control

CCN(CC)CCCC(C)Nc1c2ccc(Cl)cc2nc2ccc(OC)cc12 (configuration not stated)
inactive: dose: 8.0 mg/kg/injection, schedule: Q01DX009 (ip), vehicle: saline with Tween-80 116 % of control | [4] 96 % of control | dose: 8.0 mg/kg/injection, schedule: Q01DX009 (ip), vehicle: suspension in saline 119 % of control | dose: 16.0 mg/kg/injection, schedule: Q01DX009 (ip), vehicle: saline with Tween-80 96 % of control and 118 % of control | dose: 16.0 mg/kg/injection, schedule: Q01DX009 (ip), vehicle: saline 100 % of control | dose: 16.0 mg/kg/injection, schedule: Q01DX009 (ip), vehicle: suspension in saline 121 % of control | dose: 32.0 mg/kg/injection, schedule: Q01DX009 (ip), vehicle: saline with Tween-80 100 % of control and 108 % of control | [2] 99 % of control | dose: 32.0 mg/kg/injection, schedule: Q01DX009 (ip), vehicle: suspension in saline 116 % of control | dose: 64.0 mg/kg/injection, schedule: Q01DX009 (ip), vehicle: saline with Tween-80 102 % of control and 110 % of control | [3] 95 % of control | dose: 64.0 mg/kg/injection, schedule: Q01DX009 (ip), vehicle: suspension in saline 121 % of control | dose: 128.0 mg/kg/injection, schedule: Q01DX009 (ip), vehicle: saline with Tween-80 102 % of control | dose: 128.0 mg/kg/injection, schedule: Q01DX009 (ip), vehicle: suspension in saline 119 % of control

CN(Cc1cnc2nc(N)nc(N)c2n1)c1c(Cl)cc(C(=O)NC(CCC(=O)O)C(=O)O)cc1Cl (configuration not stated)
inactive: dose: 60.0 mg/kg/injection, schedule: Q01DX009 (ip), vehicle: sodium bicarbonate 103 % of control | dose: 90.0 mg/kg/injection, schedule: Q01DX009 (ip), vehicle: sodium bicarbonate 110 % of control | dose: 135.0 mg/kg/injection, schedule: Q01DX009 (ip), vehicle: sodium bicarbonate 101 % of control | dose: 600.0 mg/kg/injection, schedule: Q04DX003 (ip), vehicle: sodium bicarbonate 109 % of control | dose: 670.0 mg/kg/injection, schedule: Q01DX001 (ip), vehicle: sodium bicarbonate 97 % of control | dose: 900.0 mg/kg/injection, schedule: Q04DX003 (ip), vehicle: sodium bicarbonate 102 % of control | dose: 1000.0 mg/kg/injection, schedule: Q01DX001 (ip), vehicle: sodium bicarbonate 102 % of control
